pEC50: −log10 of the molar value. Where two headings read alike, the source gives them in different places.
Legend:
ZR-75-1 xenograft tumors = experiment: In vivo target inhibition, immunoblotting of ZR-75-1 xenograft tumors; parameters: species or system mouse; conditions: 50 or 75 mg/kg QD x 5, Western blots
Protocol: Control animals were treated with vehicle (1% HEC/ 25 mM phosphate buffer, pH = 2) using the same schedule of dosing. The red bar just above the X-axis illustrates the duration of the treatment period. Tumor volume measurements were taken routinely during the course of the study and are plotted as mean +/- SEM versus days following tumor cell implantation. (B) Body weights were recorded routinely during the course of the study and are plotted as mean % change (+/– SEM) relative to the mean body weight recorded on the day just prior to the first day of dosing (baseline day = 27). (C) The waterfall plots indicate the relative tumor volumes for individual animals which were determined at the end of the dosing period (study day 55). […] Growth inhibition is observed in those instances where the calculated changes in %DT/C are less than 100% whereby greater inhibition results in smaller %DT/C values. Change in %DT/C values that are less than zero indicate regressions whereby the tumor volumes on day 55 are smaller than the baseline tumor volume measured on the day prior to the initiation of dosing (baseline day = day 27). […] The tumor volumes measured on day 27 served as the baseline volumes for the calculation of %DT/C. […] Potential CDK9 inhibition was assessed by measuring the expression of MCL1 or phosphorylation of serine 2 on the C-terminal domain repeat on RNA polymerase II (pCTD). […]

MCF7 cells = experiment: TCA metabolite profiling by LC/MS in MCF7; format: cell-based, human; conditions: for pEC50: Homo sapiens, MCF7, MCF7, single experiment, read-out: EC50 α-ketoglutarate; for Aspartate level / Citrate level / Fumarate level / Glutamate level / Isocitrate level / Lactate level / Malate level / Pyruvate level / Succinate level / α-ketoglutarate level: MCF7, 3 DT, normalized to DMSO = 1, n = 3
Protocol: MCF7 cells were plated at 20,000 cells/well in 24-well plate; approximately 14–24 hours after seeding, cells were treated with DMSO (vehicle) or the indicated compounds diluted in DMSO. Cells were incubated for three different incubation times: 48 hours (1 DT), 96 hours (2 DT), and […] (3 DT). After treatment, cells were harvested and the collected pellet was stored at -80°C. For additional details see Supplemental Methods and Supplementary Table 1. […]
SA-β-gal Cell samples were lysed after treatment with expression was determined using the Senescence Cells 100 µL lysis buffer and transferred to a 96-well plate.
Histochemical Staining Kit (Sigma, CS0030) following 30 µL of each sample were transferred into deep well the vendor ’s manual. Images were taken at 100x by bright plates using TECAN-EVO Workstation. Samples were field microscopy (Leica DMiL). treated for derivatization of the metabolites of interest and internal standards. For this, 50 µL of derivatization reagent
Proliferation studies after washouts (EdU Click- and 80 µL of internal standard (IS, SupplementaryTable iT®) 1), were added with multidrop, plates were vortexed for 5 mins and let sit for one hour at 4 °C. The IS used were the Cells were plated onto poly-D-lysine D or 13C-labeled commercial analogues of nine of the ten coated 96-well plates at a density of 2,000–6,000 metabolites, prepared at 25 µM in water (Supplementary viable cells per well, and treated with abemaciblib or Table 1). The derivatization reagents (from Sigma), palbociclib at 1µM following the cell treatment and 3-nitrophenylhydrazine (0.5 M) and the coupling buffer washout schedule shown on Supplementary Figure 1A. [N-(3-Dimethylaminopropyl)-N′-ethylcarbodiimide An EdU (5-ethynyl-2’-deoxyuridine) pulse was added hydrochloride (1M) were freshly prepared in 75:24:1 one hour prior to the end of study at a final concentration methanol/water/pyridine. of 10 µM as described in the kit protocol (Click-iT After derivatization, a liquid-liquid extraction step High Content Imaging EdU Incorporation kit (Life with ethyl acetate was carried out in two steps; the upper Technologies cat# C10351)). The cells were then fixed phase was transferred to a new deep-well plate with in the presence of 3.7% formaldehyde for 20 minutes at TECAN-EVO, and the joint extract was evaporated to 37°C, and permeabilized with 0.1% Triton-X 100 in PBS dryness with nitrogen, and reconstituted with 50% H2O/ for 10 minutes at 25°C, then washed twice with PBS. MetOH. A set of calibrants at 12 levels of the analytes They were blocked using 1% bovine serum albumin was derivatized in parallel following the same protocol.
(BSA) (Invitrogen #15260-037) for 1 hour at 25°C. EdU Samples were analyzed by LC─MS/MS under the detection was performed using the Click-iT High Content conditions described below. […]
Mass Spectrometer (qQq) with JetStream Electrospray
Objects were identified using an algorithm to Ionization (ESI) Source, coupled to a LC1290 Infinity detect nuclear staining with Hoechst 33342 dye. The High-Performance Liquid Chromatograph. The software relative levels and sub-cellular localization of EdU were for data collection and treatment was Agilent Masshunter determined through the respective intensities and locations Workstation. Mobile phases for chromatography were: of Alexa-488 fluorescence. mobile phase A: formic acid (5 mM) and ammonium formate (10 mM) in water; mobile phase B: acetonitrile.
Assessment of hypermethylation of histone H3 at 50% Acetonitrile/water were used to clean the lysine 9 (H3K9me3) injection needle after each injection. A reverse-phase chromatographic column (XBridge BEH C18 3.5 µm, MCF7 and EFM-19 cells were plated in 96-well 2.1 × 50 mm) from […] plates and treated at 20 µM (or a 3-fold dilution series) was used as stationary phase. Chromatographic separation […]
Tecan Genesis RSP100 liquid-handling system was used mobile phase A in 6 min; then to 5% in 0.1 min, maintained […]

CCN1CCN(Cc2ccc(Nc3ncc(F)c(-c4cc(F)c5nc(C)n(C(C)C)c5c4)n3)nc2)CC1 [abemaciclib, Abemaciclib]
CDK9 inhibition in tumors (pCTD, MCL1 expression) (ZR-75-1 xenograft tumors): not inhibited at any dose
phospho-(Ser780/807/811)-Rb, Topo IIα and phospho-(Ser10)-H3 in tumors (ZR-75-1 xenograft tumors; tumors collected 24 hours later): inhibition of phospho-(Ser780/807/811)-Rb
pEC50 (MCF7 cells; 1 DT): 6.43
pEC50 (MCF7 cells; 2 DT): 6.55
pEC50 (MCF7 cells; 3DT): 6.14
Aspartate level (MCF7 cells; 0.5 µM): 0.72 ± 0.10
Citrate level (MCF7 cells; 0.5 µM): 1.20 ± 0.27
Fumarate level (MCF7 cells; 0.5 µM): 0.12 ± 0.02
Glutamate level (MCF7 cells; 0.5 µM): 0.71 ± 0.06
Isocitrate level (MCF7 cells; 0.5 µM): 1.90 ± 0.65
Lactate level (MCF7 cells; 0.5 µM): 0.30 ± 0.02
Malate level (MCF7 cells; 0.5 µM): 0.22 ± 0.01
Pyruvate level (MCF7 cells; 0.5 µM): 1.22 ± 0.64
Succinate level (MCF7 cells; 0.5 µM): 0.35 ± 0.08
α-ketoglutarate level (MCF7 cells; 0.5 µM): 0.13 ± 0.03
Aspartate level (MCF7 cells; 2 µM): 0.47 ± 0.13
Citrate level (MCF7 cells; 2 µM): 1.07 ± 0.3
Fumarate level (MCF7 cells; 2 µM): 0.12 ± 0.07
Glutamate level (MCF7 cells; 2 µM): 1.10 ± 0.38
Isocitrate level (MCF7 cells; 2 µM): 0.81 ± 0.52
Lactate level (MCF7 cells; 2 µM): 0.38 ± 0.15
Malate level (MCF7 cells; 2 µM): 0.09 ± 0.03
Pyruvate level (MCF7 cells; 2 µM): 3.59 ± 1.65
Succinate level (MCF7 cells; 2 µM): 0.65 ± 0.23
α-ketoglutarate level (MCF7 cells; 2 µM): 0.08 ± 0.02
